Experimental data from patent US7517874B2 (priority 2007, dated 2009).
Like-named read-outs stand apart in the source and are kept apart here.

Key:
[1] = biological target: human CB1 receptor (hCB1) (Homo sapiens, UniProt P21554); assay: cell-based; assay type: cell-based; conditions: for +/− HCB1: agonist or inverse agonist at hCB1
Method in brief: (§1)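 Readout: LANCE TR-FRET cAMP, back-calculated from a concurrent standard curve and scaled between forskolin-only and forskolin + 1 μM CP55,940 wells. EC50 and intrinsic activity came from four-parameter fits.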

rat CB2 receptor (rCB2) = biological target: T1, rat CB2 receptor (rCB2) (Rattus norvegicus, UniProt Q9QZN9); assay: cell-based; assay type: cell-based; conditions: agonist or inverse agonist at rCB2
T1 sequence (Q9QZN9 1-360): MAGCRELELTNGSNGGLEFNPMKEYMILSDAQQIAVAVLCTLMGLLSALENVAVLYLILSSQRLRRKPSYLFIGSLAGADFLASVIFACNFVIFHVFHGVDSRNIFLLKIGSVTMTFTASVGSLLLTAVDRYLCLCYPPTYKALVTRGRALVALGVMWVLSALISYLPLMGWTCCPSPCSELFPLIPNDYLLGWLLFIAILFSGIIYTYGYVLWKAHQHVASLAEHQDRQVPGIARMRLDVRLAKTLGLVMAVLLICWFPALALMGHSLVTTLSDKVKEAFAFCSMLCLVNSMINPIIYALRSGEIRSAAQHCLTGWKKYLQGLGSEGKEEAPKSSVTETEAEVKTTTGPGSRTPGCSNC
Method in brief: as §1

Sequence of human CB1 receptor (hCB1) (P21554 whole entry): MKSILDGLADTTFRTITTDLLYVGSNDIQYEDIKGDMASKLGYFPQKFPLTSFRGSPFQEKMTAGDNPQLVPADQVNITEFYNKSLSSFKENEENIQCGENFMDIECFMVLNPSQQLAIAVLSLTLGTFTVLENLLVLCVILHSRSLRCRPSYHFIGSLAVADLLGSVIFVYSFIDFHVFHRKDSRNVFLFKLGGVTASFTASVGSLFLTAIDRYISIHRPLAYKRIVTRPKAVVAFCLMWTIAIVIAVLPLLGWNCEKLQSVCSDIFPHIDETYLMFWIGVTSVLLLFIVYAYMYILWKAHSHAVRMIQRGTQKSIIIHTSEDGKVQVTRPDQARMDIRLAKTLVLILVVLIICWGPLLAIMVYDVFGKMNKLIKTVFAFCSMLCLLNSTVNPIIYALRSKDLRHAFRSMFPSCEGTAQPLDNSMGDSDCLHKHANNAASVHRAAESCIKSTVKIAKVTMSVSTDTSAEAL

| SMILES | EC50 [1] | +/− RCB2 (rat CB2 receptor (rCB2)) | +/− HCB1 [1] | EC50 ([1]; groups >100 nM-10 μM and >10 μM, cAMP, CHO-K1 hCB1, read-out: EC50 HCB1) |
| --- | --- | --- | --- | --- |
| Cc1ccc(-c2nc(C(=O)N[C@H](c3nc(C)no3)C(C)(C)C)c3n2CCCN(C(=O)OC(C)(C)C)C3)c(F)c1 [Compound 518, (S)-tert-butyl 1-(2,2-dimethyl-1-(3-methyl-1,2,4-oxadiazol-5-yl)propylcarbamoyl)-3-(2-fluoro-4-methylphenyl)-6,7-dihydro-5H-imidazo[1,5-a][1,4]diazepine-8(9H)-carboxylate] | > 10000 nM | − |  |  |
| Cc1noc([C@@H](NC(=O)c2nc(-c3ccccc3)n3c2CNCCC3)C(C)(C)C)n1 [Compound 519, (S)-N-(2,2-dimethyl-1-(3-methyl-1,2,4-oxadiazol-5-yl)propyl)-3-phenyl-6,7,8,9-tetrahydro-5H-imidazo[1,5-a][1,4]diazepine-1-carboxamide] | > 10000 nM | + |  |  |
| Cc1ccc(-c2nc(C(=O)N[C@H](c3nc(C)no3)C(C)(C)C)c3n2CCCNC3)c(F)c1 [Compound 520, (S)-N-(2,2-dimethyl-1-(3-methyl-1,2,4-oxadiazol-5-yl)propyl)-3-(2-fluoro-4-methylphenyl)-6,7,8,9-tetrahydro-5H-imidazo[1,5-a][1,4]diazepine-1-carboxamide] | > 10000 nM | − |  |  |
| Cc1noc([C@@H](NC(=O)c2nc(-c3ccccc3)n3c2CN(C)CCC3)C(C)(C)C)n1 [Compound 521, (S)-N-(2,2-dimethyl-1-(3-methyl-1,2,4-oxadiazol-5-yl)propyl)-8-methyl-3-phenyl-6,7,8,9-tetrahydro-5H-imidazo[1,5-a][1,4]diazepine-1-carboxamide] | > 10000 nM | + |  |  |
| Cc1ccc(-c2nc(C(=O)N[C@H](c3nc(C)no3)C(C)(C)C)c3n2CCCN(C)C3)c(F)c1 [Compound 522, (S)-N-(2,2-dimethyl-1-(3-methyl-1,2,4-oxadiazol-5-yl)propyl)-3-(2-fluoro-4-methylphenyl)-8-methyl-6,7,8,9-tetrahydro-5H-imidazo[1,5-a][1,4]diazepine-1-carboxamide] | > 10000 nM | − |  |  |
| Cc1ccc(-c2nc(C(=O)N[C@H](c3nc(C)no3)C(C)(C)C)c3n2CCCN(C(C)C)C3)c(F)c1 [Compound 523, (S)-N-(2,2-dimethyl-1-(3-methyl-1,2,4-oxadiazol-5-yl)propyl)-3-(2-fluoro-4-methylphenyl)-8-isopropyl-6,7,8,9-tetrahydro-5H-imidazo[1,5-a][1,4]diazepine-1-carboxamide] | > 10000 nM | − |  |  |
| CCN1CCCn2c(-c3ccccc3)nc(C(=O)N[C@H](c3nc(C)no3)C(C)(C)C)c2C1 [Compound 524, (S)-N-(2,2-dimethyl-1-(3-methyl-1,2,4-oxadiazol-5-yl)propyl)-8-ethyl-3-phenyl-6,7,8,9-tetrahydro-5H-imidazo[1,5-a][1,4]diazepine-1-carboxamide] | > 10000 nM | − |  |  |
| Cc1noc([C@@H](NC(=O)c2nc(-c3ccccc3)n3c2CN(C(C)C)CCC3)C(C)(C)C)n1 [Compound 525, (S)-N-(2,2-dimethyl-1-(3-methyl-1,2,4-oxadiazol-5-yl)propyl)-8-isopropyl-3-phenyl-6,7,8,9-tetrahydro-5H-imidazo[1,5-a][1,4]diazepine-1-carboxamide] | > 10000 nM | − |  |  |
| CNC(=O)[C@@H](NC(=O)c1nc(-c2ccc(Cl)cc2F)n2c1CN(C1CCN(C(C)=O)CC1)CCC2)C(C)(C)C [Compound 527, (S)-8-(1-acetylpiperidin-4-yl)-3-(4-chloro-2-fluorophenyl)-N-(3 3-dimethyl-1-(methylamino)-1-oxobutan-2-yl)-6,7,8,9-tetrahydro-5H-imidazo[1,5-a][1,4]diazepine-1-carboxamide] | > 10000 nM | − |  |  |
| CNC(=O)[C@@H](NC(=O)c1nc(C2CCC(F)(F)CC2)n2c1CN(C)CCC2)C(C)(C)C [Compound 528, (S)-3-(4,4-difluorocyclohexyl)-N-(3,3-dimethyl-1-(methylamino)-1-oxobutan-2-yl)-8-methyl-6,7,8,9-tetrahydro-5H-imidazo[1,5-a][1,4]diazepine-1-carboxamide] | > 10000 nM | + |  |  |
| CNC(=O)[C@H](CC(C)C)NC(=O)c1nc(-c2ccc(Cl)cc2F)n2c1CN(C)CCC2 [Compound 529, (S)-3-(4-chloro-2-fluorophenyl)-8-methyl-N-(4-methyl-1-(methylamino)-1-oxopentan-2-yl)-6,7,8,9-tetrahydro-5H-imidazo[1,5-a][1,4]diazepine-1-carboxamide] | > 10000 nM | + |  |  |
| CNC(=O)[C@H](CC(C)C)NC(=O)c1nc(-c2ccc(F)cc2)n2c1CN(C)CCC2 [Compound 530, (S)-3-(4-fluorophenyl)-8-methyl-N-(4-methyl-1-(methylamino)-1-oxopentan-2-yl)-6,7,8,9-tetrahydro-5H-imidazo[1,5-a][1,4]diazepine-1-carboxamide] | > 10000 nM | + |  |  |
| CNC(=O)[C@H](CC(C)C)NC(=O)c1nc(-c2cccc(F)c2)n2c1CN(C)CCC2 [Compound 531, (S)-3-(3-fluorophenyl)-8-methyl-N-(4-methyl-1-(methylamino)-1-oxopentan-2-yl)-6,7,8,9-tetrahydro-5H-imidazo[1,5-a][1,4]diazepine-1-carboxamide] | > 10000 nM | + |  |  |
| CNC(=O)[C@H](CC(C)C)NC(=O)c1nc(-c2cc(F)ccc2F)n2c1CN(C)CCC2 [Compound 532, (S)-3-(2,5-difluorophenyl)-8-methyl-N-(4-methyl-1-(methylamino)-1-oxopentan-2-yl)-6,7,8,9-tetrahydro-5H-imidazo[1,5-a][1,4]diazepine-1-carboxamide] | > 10000 nM | − |  |  |
| CNC(=O)[C@H](CC(C)C)NC(=O)c1nc(-c2ccc(C(F)(F)F)cc2F)n2c1CN(C)CCC2 [Compound 533, (S)-3-(2-fluoro-4-(trifluoromethyl)phenyl)-8-methyl-N-(4-methyl-1-(methylamino)-1-oxopentan-2-yl)-6,7,8,9-tetrahydro-5H-imidazo[1,5-a][1,4]diazepine-1-carboxamide] | > 10000 nM | + |  |  |
| CNC(=O)[C@H](CC(C)C)NC(=O)c1nc(-c2ccc(F)cc2F)n2c1CN(C)CCC2 [Compound 534, (S)-3-(2,4-difluorophenyl)-8-methyl-N-(4-methyl-1-(methylamino)-1-oxopentan-2-yl)-6,7,8,9-tetrahydro-5H-imidazo[1,5-a][1,4]diazepine-1-carboxamide] | > 10000 nM | + |  |  |
| CNC(=O)[C@H](CC(C)C)NC(=O)c1nc(-c2ccc(F)c(F)c2)n2c1CN(C)CCC2 [Compound 535, (S)-3-(3,4-difluorophenyl)-8-methyl-N-(4-methyl-1-(methylamino)-1-oxopentan-2-yl)-6,7,8,9-tetrahydro-5H-imidazo[1,5-a][1,4]diazepine-1-carboxamide] | > 10000 nM | + |  |  |
| CNC(=O)[C@H](CC(C)C)NC(=O)c1nc(-c2cc(Cl)ccc2F)n2c1CN(C)CCC2 [Compound 536, (S)-3-(5-chloro-2-fluorophenyl)-8-methyl-N-(4-methyl-1-(methylamino)-1-oxopentan-2-yl)-6,7,8,9-tetrahydro-5H-imidazo[1,5-a][1,4]diazepine-1-carboxamide] | > 10000 nM | + |  |  |
| CNC(=O)[C@H](CC(C)C)NC(=O)c1nc(-c2ccc(F)c(Cl)c2)n2c1CN(C)CCC2 [Compound 537, (S)-3-(3-chloro-4-fluorophenyl)-8-methyl-N-(4-methyl-1-(methylamino)-1-oxopentan-2-yl)-6,7,8,9-tetrahydro-5H-imidazo[1,5-a][1,4]diazepine-1-carboxamide] | > 10000 nM | + |  |  |
| CNC(=O)[C@H](CC(C)C)NC(=O)c1nc(-c2cc(F)c(F)cc2F)n2c1CN(C)CCC2 [Compound 538] |  | + | + |  |
| CNC(=O)[C@H](CC(C)C)NC(=O)c1nc(-c2cc(Cl)c(F)cc2F)n2c1CN(C)CCC2 [Compound 539, (S)-3-(5-chloro-2,4-difluorophenyl)-8-methyl-N-(4-methyl-1-(methylamino)-1-oxopentan-2-yl)-6,7,8,9-tetrahydro-5H-imidazo[1,5-a][1,4]diazepine-1-carboxamide] |  | + | + |  |
| CNC(=O)[C@H](CC(C)C)NC(=O)c1nc(C2CCCCC2)n2c1CN(C)CCC2 [Compound 540, (S)-3-cyclohexyl-8-methyl-N-(4-methyl1-1-(methylamino)-1-oxopentan-2-yl)-6,7,8,9-tetrahydro-5H-imidazo[1,5-a][1,4]diazepine-1-carboxamide] |  | + |  | > 10000 nM |
| CNC(=O)[C@@H](NC(=O)c1nc(-c2cc(F)c(F)cc2F)n2c1CN(C)CCC2)C1CCCCC1 [Compound 541, (S)-N-(1-cyclohexyl-2-(methylamino)-2-oxoethyl)-8-methyl-3-(2,4,5-trifluorophenyl)-6,7,8,9-tetrahydro-5H-imidazo[1,5-a][1,4]diazepine-1-carboxamide] |  | + | + |  |
| CNC(=O)[C@@H](NC(=O)c1nc(-c2cc(Cl)c(F)cc2F)n2c1CN(C)CCC2)C1CCCCC1 [Compound 542, (S)-3-(5-chloro-2,4-difluorophenyl)-N-(1-cyclohexyl-2-(methylamino)-2-oxoethyl)-8-mehtyl-6,7,8,9-tetrahydro-5H-imidazo[1,5-a][1,4]diazepine-1-carboxamide] |  | + | + |  |
